Measured values: the supplement of paper PMC10307832

Columns and labels:
Test in all cases: relative viability (nuclei count vs DMSO), 5 days (fraction); higher = more cells survive
Everolimus + Lapatinib = compound: CO[C@H]1C[C@@H]2CC[C@@H](C)[C@@](O)(O2)C(=O)C(=O)N2CCCC[C@H]2C(=O)O[C@H]([C@H](C)C[C@@H]2CC[C@@H](OCCO)[C@H](OC)C2)CC(=O)[C@H](C)/C=C(\C)[C@@H](O)[C@@H](OC)C(=O)[C@H](C)C[C@H](C)/C=C/C=C/C=C/1C [Everolimus] + CS(=O)(=O)CCNCc1ccc(-c2ccc3ncnc(Nc4ccc(OCc5cccc(F)c5)c(Cl)c4)c3c2)o1 [Lapatinib] (partner 2 µM)
Method in brief: (§1)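 Values are medians from duplicate plates. Each reflects relative viability, defined as the nuclei count of treated wells over that of vehicle wells. Lung cancer cell lines in 1536-well plates were pin-tool dosed one day after seeding with one drug alone or with a fixed anchor-drug dose plus five library-drug doses (not always all listed) in √10 steps, then fixed, stained and imaged at 4× after 5 days.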

Everolimus + Crizotinib = compound: CO[C@H]1C[C@@H]2CC[C@@H](C)[C@@](O)(O2)C(=O)C(=O)N2CCCC[C@H]2C(=O)O[C@H]([C@H](C)C[C@@H]2CC[C@@H](OCCO)[C@H](OC)C2)CC(=O)[C@H](C)/C=C(\C)[C@@H](O)[C@@H](OC)C(=O)[C@H](C)C[C@H](C)/C=C/C=C/C=C/1C [Everolimus] + C[C@@H](Oc1cc(-c2cnn(C3CCNCC3)c2)cnc1N)c1c(Cl)ccc(F)c1Cl [Crizotinib] (partner 1 µM)
Method in brief: as §1

Everolimus + Dasatinib = compound: CO[C@H]1C[C@@H]2CC[C@@H](C)[C@@](O)(O2)C(=O)C(=O)N2CCCC[C@H]2C(=O)O[C@H]([C@H](C)C[C@@H]2CC[C@@H](OCCO)[C@H](OC)C2)CC(=O)[C@H](C)/C=C(\C)[C@@H](O)[C@@H](OC)C(=O)[C@H](C)C[C@H](C)/C=C/C=C/C=C/1C [Everolimus] + Cc1nc(Nc2ncc(C(=O)Nc3c(C)cccc3Cl)s2)cc(N2CCN(CCO)CC2)n1 [Dasatinib] (partner 0.075 µM)
Method in brief: as §1

Everolimus + Pemetrexed = compound: CO[C@H]1C[C@@H]2CC[C@@H](C)[C@@](O)(O2)C(=O)C(=O)N2CCCC[C@H]2C(=O)O[C@H]([C@H](C)C[C@@H]2CC[C@@H](OCCO)[C@H](OC)C2)CC(=O)[C@H](C)/C=C(\C)[C@@H](O)[C@@H](OC)C(=O)[C@H](C)C[C@H](C)/C=C/C=C/C=C/1C [Everolimus] + Nc1nc2[nH]cc(CCc3ccc(C(=O)N[C@@H](CCC(=O)O)C(=O)O)cc3)c2c(=O)[nH]1 [Pemetrexed] (partner 0.2 µM)
Method in brief: as §1

| Cell Line | relative viability (Everolimus + Lapatinib; first compound 0.01 µM) | relative viability (Everolimus + Lapatinib; first compound 0.03162 µM) | relative viability (Everolimus + Lapatinib; first compound 0.1 µM) | relative viability (Everolimus + Lapatinib; first compound 0.3162 µM) | relative viability (Everolimus + Lapatinib; first compound 1 µM) | relative viability (Everolimus + Crizotinib; first compound 0.01 µM) | relative viability (Everolimus + Crizotinib; first compound 0.03162 µM) | relative viability (Everolimus + Crizotinib; first compound 0.1 µM) | relative viability (Everolimus + Crizotinib; first compound 0.3162 µM) | relative viability (Everolimus + Crizotinib; first compound 1 µM) | relative viability (Everolimus + Dasatinib; first compound 0.01 µM) | relative viability (Everolimus + Dasatinib; first compound 0.03162 µM) | relative viability (Everolimus + Dasatinib; first compound 0.1 µM) | relative viability (Everolimus + Dasatinib; first compound 0.3162 µM) | relative viability (Everolimus + Dasatinib; first compound 1 µM) | relative viability (Everolimus + Pemetrexed; first compound 0.01 µM) | relative viability (Everolimus + Pemetrexed; first compound 0.03162 µM) | relative viability (Everolimus + Pemetrexed; first compound 0.1 µM) | relative viability (Everolimus + Pemetrexed; first compound 0.3162 µM) | relative viability (Everolimus + Pemetrexed; first compound 1 µM) |
| --- | --- | --- | --- | --- | --- | --- | --- | --- | --- | --- | --- | --- | --- | --- | --- | --- | --- | --- | --- | --- |
| UMC-11 | 0.373 | 0.326 | 0.306 | 0.433 | 0.438 | 0.271 | 0.244 | 0.239 | 0.249 | 0.286 | 0.307 | 0.293 | 0.326 | 0.319 | 0.302 | 0.43 | 0.412 | 0.429 | 0.394 | 0.426 |
| NCI-H1792 | 0.637 | 0.656 | 0.679 | 0.593 | 0.734 | 0.865 | 0.769 | 0.724 | 0.583 | 0.644 | 0.732 | 0.435 | 0.562 | 0.518 | 0.484 | 0.335 | 0.245 | 0.318 | 0.315 | 0.183 |
| NCI-H1993 | 0.725 | 0.69 | 0.649 | 0.791 | 0.807 | 0.688 | 0.659 | 0.702 | 0.642 | 0.705 | 0.434 | 0.449 | 0.341 | 0.409 | 0.452 | 0.516 | 0.457 | 0.482 | 0.508 | 0.547 |
| NCI-H596 | 0.715 | 0.677 | 0.545 | 0.676 | 0.677 | 0.677 | 0.65 | 0.631 | 0.619 | 0.683 | 0.395 | 0.428 | 0.392 | 0.462 | 0.482 | 0.454 | 0.46 | 0.471 | 0.433 | 0.443 |
| NCI-H1563 | 0.785 | 0.839 | 0.758 | 0.769 | 0.817 | 0.673 | 0.654 | 0.682 | 0.684 | 0.692 | 0.434 | 0.419 | 0.462 | 0.464 | 0.437 | 0.715 | 0.572 | 0.618 | 0.576 | 0.546 |
| HCC-827 | 0.191 | 0.13 | 0.163 | 0.204 | 0.153 | 0.947 | 0.831 | 0.852 | 0.998 | 0.839 | 0.221 | 0.331 | 0.2 | 0.168 | 0.17 | 0.22 | 0.251 | 0.194 | 0.275 | 0.243 |
| NCI-H2228 | 0.89 | 0.7 | 0.705 | 0.582 | 0.793 | 0.331 | 0.254 | 0.281 | 0.303 | 0.328 | 0.335 | 0.394 | 0.246 | 0.271 | 0.253 | 0.252 | 0.313 | 0.312 | 0.285 | 0.243 |
